According to PMC10076467 (EJNMMI Research, 2023):
Several values for one entry are separate records, joined by “and”; a condition that tells them apart may be missing. Identical values can stand only once.

What was measured:
[1] = system: σ2 receptor; conditions: at 10 µmol; cited from earlier work
[2] = biological target: T1, GluN2B (Homo sapiens, UniProt Q05586+Q13224); design: method as in PMID 31924728; conditions: cited from earlier work
T1 construct: expressed in transfected cells; host or cells: transiently transfected mouse fibroblast cells (membrane homogenate)
T1 sequence (Q13224 27-1484, species assumed, other chains not shown): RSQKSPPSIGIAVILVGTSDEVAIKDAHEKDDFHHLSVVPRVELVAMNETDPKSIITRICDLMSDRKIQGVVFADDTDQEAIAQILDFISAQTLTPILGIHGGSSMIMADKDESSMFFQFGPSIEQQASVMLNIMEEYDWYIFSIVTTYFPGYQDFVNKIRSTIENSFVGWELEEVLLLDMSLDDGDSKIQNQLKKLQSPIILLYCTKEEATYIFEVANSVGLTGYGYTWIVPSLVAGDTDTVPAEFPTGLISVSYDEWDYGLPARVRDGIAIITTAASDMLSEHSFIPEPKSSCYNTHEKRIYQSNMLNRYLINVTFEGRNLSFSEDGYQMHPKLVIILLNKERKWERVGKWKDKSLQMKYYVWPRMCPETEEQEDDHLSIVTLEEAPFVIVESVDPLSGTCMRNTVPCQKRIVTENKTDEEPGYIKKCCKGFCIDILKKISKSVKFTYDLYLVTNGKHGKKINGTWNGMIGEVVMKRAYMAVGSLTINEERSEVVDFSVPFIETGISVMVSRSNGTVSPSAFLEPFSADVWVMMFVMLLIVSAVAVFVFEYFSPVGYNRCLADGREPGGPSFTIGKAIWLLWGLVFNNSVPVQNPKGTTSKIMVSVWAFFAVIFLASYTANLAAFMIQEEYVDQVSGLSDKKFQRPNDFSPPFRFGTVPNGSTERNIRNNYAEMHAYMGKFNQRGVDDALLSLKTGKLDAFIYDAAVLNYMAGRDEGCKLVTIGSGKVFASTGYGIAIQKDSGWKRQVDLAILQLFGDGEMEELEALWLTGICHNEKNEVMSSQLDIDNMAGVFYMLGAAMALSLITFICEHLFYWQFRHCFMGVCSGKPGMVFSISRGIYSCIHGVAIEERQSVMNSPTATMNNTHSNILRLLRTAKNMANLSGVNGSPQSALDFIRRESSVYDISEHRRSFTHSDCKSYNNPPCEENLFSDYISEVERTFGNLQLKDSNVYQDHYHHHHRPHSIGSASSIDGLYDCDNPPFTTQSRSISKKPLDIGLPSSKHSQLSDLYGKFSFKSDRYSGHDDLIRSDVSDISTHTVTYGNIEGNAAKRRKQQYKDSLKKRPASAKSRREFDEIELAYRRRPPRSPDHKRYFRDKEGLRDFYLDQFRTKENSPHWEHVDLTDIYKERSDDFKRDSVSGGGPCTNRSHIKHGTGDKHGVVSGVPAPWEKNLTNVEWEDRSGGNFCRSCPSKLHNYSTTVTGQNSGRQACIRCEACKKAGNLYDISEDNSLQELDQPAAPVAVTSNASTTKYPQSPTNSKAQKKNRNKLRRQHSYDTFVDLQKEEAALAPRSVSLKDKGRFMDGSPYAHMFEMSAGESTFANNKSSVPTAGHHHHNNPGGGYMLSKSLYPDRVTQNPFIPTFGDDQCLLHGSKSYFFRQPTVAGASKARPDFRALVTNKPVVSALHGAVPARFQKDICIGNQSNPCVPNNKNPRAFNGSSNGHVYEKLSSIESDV

[3] = biological target: T2, σ1 receptors (Rattus norvegicus, UniProt Q9R0C9); test: ED50 for pre-blocking of ^18F-FTC146 uptake in rat whole brain (PET); assay type: in vivo; conditions: radioligand ^18F-FTC146, AUC 20-120 min
T2 construct: from tissue; host or cells: brain of living male rats (PET imaging)
T2 sequence (Q9R0C9 whole entry): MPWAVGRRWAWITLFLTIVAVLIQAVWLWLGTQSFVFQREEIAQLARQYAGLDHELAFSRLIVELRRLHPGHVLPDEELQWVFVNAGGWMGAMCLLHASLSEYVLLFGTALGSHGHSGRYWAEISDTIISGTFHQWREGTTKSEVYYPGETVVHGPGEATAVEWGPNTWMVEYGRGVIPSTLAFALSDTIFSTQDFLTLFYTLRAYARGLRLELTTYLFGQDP
Protocol: (§1) For radioligand injection, a polyethylene catheter (PE 10) was inserted into the penile vein of a male rat and then secured with tissue adhesive and tape. For dynamic scanning, the rats were secured with tape in the scanner and kept under 1.5% isoflurane anesthesia via a nose cone. Body temperature was monitored with a rectal probe. All PET scans were performed on a microPET Focus 220 scanner (Siemens Medical Solutions) (7,8). Data were acquired in listmode and reconstructed with Fourier rebinning + 2D filtered backprojection. A transmission scan was acquired before radioligand injection for attenuation correction. Dynamic scanning began at the time of a one-minute intravenous bolus injection of the radioligand under study (55 ± 19 MBq; volume 0.2 to 1.0 mL). The injected mass dose was 3 ± 1 nmol/kg. Challenge agents were administered intravenously 10 minutes before the radioligand for pre-blocking studies or 10 minutes after the radioligand for displacement studies. Tomographic images were analyzed with pixel-wise modeling computer software (PMOD 2.6; PMOD Group). Regions-of-interest in the brain were delineated, and time-activity curves calculated as SUV versus time.
Pre-blocking and displacement experiments were performed to assess radioligand target engagement and radioligand selectivity in vivo. Normally 4 doses of 0.01 mg/kg, 0.05 mg/kg, 0.25 mg/kg, and 1.25 mg/kg were used for preblocking experiments, and only 2 doses of 0.25 mg/kg and 1.25 mg/kg were used for displacement experiments. […] […] […] […] Where data permitted, the dose-response curves were fitted with GraphPad Prism software (version 8.1.1; GraphPad) to estimate the ED50 values. A dummy value of 100 pmol per kg body weight was used for zero concentration of the challenge agent in the construction of these dose-response curves. Numerical data are expressed as mean ± S.D. for n>2, or as mean and range for n = 2.

[4] = biological target: T3, GluN2B receptors (Rattus norvegicus, UniProt P35439+Q00960); design: method as in PMID 31924728; conditions: pre-blocking, radioligand ^11C-(S)-NR2B-SMe; cited from earlier work
T3 construct: from tissue; host or cells: brain of living male rats (PET imaging)
T3 sequence (Q00960 27-1482, other chains not shown): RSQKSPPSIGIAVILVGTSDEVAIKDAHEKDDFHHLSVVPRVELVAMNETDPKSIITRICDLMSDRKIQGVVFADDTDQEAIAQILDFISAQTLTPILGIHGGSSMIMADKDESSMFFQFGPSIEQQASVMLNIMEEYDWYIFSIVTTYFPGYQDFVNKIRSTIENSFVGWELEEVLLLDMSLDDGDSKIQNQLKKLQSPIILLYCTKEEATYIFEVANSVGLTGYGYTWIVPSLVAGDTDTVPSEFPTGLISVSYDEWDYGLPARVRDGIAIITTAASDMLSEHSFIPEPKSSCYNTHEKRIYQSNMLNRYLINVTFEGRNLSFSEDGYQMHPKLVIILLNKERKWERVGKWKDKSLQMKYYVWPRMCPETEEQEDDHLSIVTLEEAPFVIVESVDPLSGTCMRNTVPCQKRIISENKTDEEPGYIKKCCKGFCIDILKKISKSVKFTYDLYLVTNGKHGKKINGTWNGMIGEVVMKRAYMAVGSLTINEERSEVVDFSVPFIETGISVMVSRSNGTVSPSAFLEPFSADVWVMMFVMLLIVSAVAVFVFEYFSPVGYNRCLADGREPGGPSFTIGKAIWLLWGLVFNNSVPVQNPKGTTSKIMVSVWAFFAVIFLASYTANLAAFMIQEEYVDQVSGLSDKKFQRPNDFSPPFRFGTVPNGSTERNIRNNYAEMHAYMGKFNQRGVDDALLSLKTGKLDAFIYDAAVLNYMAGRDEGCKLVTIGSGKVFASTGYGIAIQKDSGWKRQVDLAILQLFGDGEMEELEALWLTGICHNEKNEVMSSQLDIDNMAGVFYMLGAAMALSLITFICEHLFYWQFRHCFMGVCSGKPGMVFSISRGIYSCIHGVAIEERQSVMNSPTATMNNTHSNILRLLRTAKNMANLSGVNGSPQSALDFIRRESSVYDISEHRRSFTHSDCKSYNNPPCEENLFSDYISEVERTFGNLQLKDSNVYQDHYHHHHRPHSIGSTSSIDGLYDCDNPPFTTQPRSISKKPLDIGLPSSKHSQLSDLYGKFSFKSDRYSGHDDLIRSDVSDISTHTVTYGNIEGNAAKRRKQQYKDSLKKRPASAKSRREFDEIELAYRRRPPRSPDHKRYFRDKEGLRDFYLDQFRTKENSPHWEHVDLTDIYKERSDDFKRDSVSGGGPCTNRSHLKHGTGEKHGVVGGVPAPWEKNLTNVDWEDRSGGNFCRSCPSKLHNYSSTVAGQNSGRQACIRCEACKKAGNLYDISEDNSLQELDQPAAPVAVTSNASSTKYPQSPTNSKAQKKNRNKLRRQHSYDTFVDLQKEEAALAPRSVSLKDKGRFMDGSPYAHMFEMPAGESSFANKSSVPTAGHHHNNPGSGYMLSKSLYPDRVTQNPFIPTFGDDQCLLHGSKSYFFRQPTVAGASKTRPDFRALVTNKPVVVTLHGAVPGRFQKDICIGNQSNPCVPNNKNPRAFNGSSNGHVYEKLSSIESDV

[5] = cited from earlier work
[6] = cited from earlier work; remark: listed apart in the source
[7] = LogD7.4 measurement (1-octanol / sodium phosphate buffer); assay type: physicochemical; conditions: 1-octanol / sodium phosphate buffer pH 7.4, room temperature
Protocol: The radiochemical purity of the radioligand was measured via HPLC. […] Aliquots (1 mL) were distributed to each of eight borosilicate disposable culture tubes (13 × 100 mm). Six tubes were extracted with buffer pre-treated 1-octanol (1 mL) by vortexing for one minute and then centrifuged for one minute. The organic and aqueous phases were separated. Samples of organic phase (50 µL) and aqueous phase (50 µL) were taken and separately measured for radioactivity. The remaining two tubes containing radioactivity in buffer were analyzed with HPLC to check for any decrease in radiochemical purity over the time-span of the experiment. […] LogD was calculated as log[(cpm/mL for 1-octanol phase)/(cpm/mL for aqueous phase)] using Pallas for Windows software (CompuDrug Inc.).

[8] = Radiochemical stability of formulated radioligand; assay type: physicochemical
Description: However, the fraction collected from HPLC contains 0.1% TFA. […] Protection with ascorbic acid was therefore used immediately after HPLC radioligand purification to maintain weakly acidic and reducing conditions.

[9] = n = 3
Protocol: Human Plasma Free Fraction. Plasma free fraction (fp) was measured as described previously (6). […] If necessary, samples were left to decay to within the optimal radioactivity range for accurate γ-counter measurement.

[10] = biological target: T3, GluN2B receptors; test: PET displacement / pre-blocking of ^11C-NR2B-Me radioligands with Ro-25-6981, Lassen plots; assay type: in vivo; conditions: rat; Ro-25-6981 0.25 mg/kg i.v. 10 min before radioligand
Protocol: as §1, with “For dynamic scanning, the rats were secured with tape in the scanner and kept under 1.5% isoflurane anesthesia via a nose cone.” left out
Pre-blocking and displacement experiments were performed to assess radioligand target engagement and radioligand selectivity in vivo. […] Areas-under the curve (AUCs) from time-activity curves between 20 and 90 minutes were calculated for each radioligand. AUCs obtained from the same production of radioligand were scaled to the value (or mean value) for the baseline experiment to give relative values (relative AUC20–90 min). […] Where data permitted, the dose-response curves were fitted with GraphPad Prism software (version 8.1.1; GraphPad) to estimate the ED50 values. A dummy value of 100 pmol per kg body weight was used for zero concentration of the challenge agent in the construction of these dose-response curves. Numerical data are expressed as mean ± S.D. for n>2, or as mean and range for n = 2.

[11] = Protocol: For Brain. The brain (1.7 g) was homogenized in twice its volume of cold saline. […] An aliquot (450 µL) was then placed in acetonitrile (720 µL) along with carrier NR2B-Me (5 µg) and mixed well. Water (100 µL) was then added, mixed well, measured for radioactivity, and centrifuged at 10,000 g for one minute. The supernatant was analyzed via HPLC. The precipitate was measured for radioactivity to determine the recovery of radioactivity into the supernatant that had been injected onto HPLC.
For Whole Blood. […] The sample was mixed well and incubated at 37 °C for one hour. Water (300 µL) was added to lyse open all cells. An aliquot (450 µL) was then removed to a new vial, and acetonitrile (720 µL) was added. The mixture was mixed well, measured for radioactivity, and centrifuged at 10,000 g for one minute. The supernatant was analyzed via HPLC as described for brain.
For Plasma. Plasma was separated from blood cells. […] The mixture was measured for radioactivity. An aliquot (450 µL) was then placed in acetonitrile (720 µL) along with carrier NR2B-Me (5 µg) and mixed well. Water (100 µL) was then added, mixed well, measured for radioactivity, and centrifuged at 10,000 g for one minute. The supernatant was analyzed with HPLC as described for brain. The precipitate was measured for radioactivity to determine radioactivity recovery into the supernatant that had been injected onto HPLC.
(§2) The SUV due to radioligand or radiometabolite only was calculated by multiplying the total SUV of the tissue by the fraction of the radioligand or radiometabolite measured with HPLC (Supplementary Table S4).

[12] = remark: listed apart in the source
Protocol: Rats were anesthetized with 1.5% isoflurane in oxygen. […] The rats were then immediately sacrificed by decapitation, and their brains and myocardial tissues were excised.
Plasma was separated from blood cells, and a sample (50 µL) was measured for radioactivity. An aliquot (450 µL) was placed in acetonitrile (720 µL) along with carrier NR2B-Me (5 µg) and mixed well. Water (100 µL) was added, mixed well, measured for radioactivity, and centrifuged at 10,000 g for one minute. The supernatant was analyzed with radio-HPLC and the precipitate measured for radioactivity, as described for brain.
as §2

[13] = room temperature, at least 30 min
Description: Subsequent processing and analysis were as described for rat ex vivo experiments in the main text.

[14] = pKa measurement (cyclohexane / sodium phosphate buffers); assay type: physicochemical; conditions: distribution between cyclohexane and sodium phosphate buffers
[15] = rat, ex vivo 30 min after intravenous injection

Question: Which results are given for CSc1ccc2c(c1)CCN(CCCCc1ccc(C)cc1)CC2O (racemic) [NR2B-SMe, (R,S)-7-thiomethoxy-3-(4-(4-methyl-phenyl)butyl)-2,3,4,5-tetrahydro-1H-benzo[d]azepin-1-ol]?
Answer: σ2 inhibition [1]: 90%; Ki [2]: 2.2 nM; ED50 in rat whole brain in vivo ^18F-FTC146 [3]: 1064 nmol/kg; ED50 in rat whole brain in vivo ^11C-(S)-NR2B-SMe [4]: 9.5 nmol/kg; cLogD7.4 [5]: 3.41; pKa [6]: 5.03

Question: With COc1ccc2c(c1)CCN(CCCCc1ccc([11CH3])cc1)CC2O (racemic) [^11C-NR2B-Me] as the compound, how does the logD7.4 [7] read?
Answer: 3.27

Question: What about the “time stable in PBS (10 mM)” value [8] of the same compound?
Answer: at least 2.5 hours

Question: What about the “radioligand remaining in solution (no adsorption to glass test tubes)” value ([8]; PBS 10 mM) of the same compound?
Answer: 98.1 ± 0.5%

Question: And the “human plasma free fraction (fp)” value [9]?
Answer: 1.16% ± 0.14

Question: What about the “radioactivity in brain regions at 90 min as % of peak values after pre-block” value [10] of the same compound?
Answer: about 10%

Question: And the “conversion into radiometabolite in brain homogenate” value ([11]; rat brain homogenate)?
Answer: less than 0.5%

Question: And the “In vitro stability, plasma” value ([11]; rat plasma, 37 °C, 30 min)?
Answer: 70.3%

Question: And the “single less lipophilic radiometabolite detected in rat plasma in vitro” value ([11]; rat plasma, 37 °C, 30 min)?
Answer: about 30%

Question: And the “Ex vivo stability, brain (unchanged radioligand as % of radioactivity)” value ([12]; rat brain, 30 min after intravenous injection)?
Answer: 99.5% and > 99%

Question: And the “Ex vivo stability, plasma (unchanged radioligand as % of radioactivity)” value ([12]; rat plasma, 30 min after intravenous injection)?
Answer: 46.2%

Question: And the “Radioactivity conc., brain” value [12, 15]?
Answer: 4.1 SUV

Question: What about the “Radioactivity conc., plasma” value [12, 15] of the same compound?
Answer: 0.04 SUV

Question: And the “Radioactivity conc., whole blood” value [12, 15]?
Answer: 0.300 SUV

Question: What about the “Tissue to plasma radioactivity ratio, brain” value [12, 15] of the same compound?
Answer: 103

Question: And the “Tissue to plasma radioactivity ratio, plasma” value [12, 15]?
Answer: 1.0

Question: What about the “Tissue to plasma radioactivity ratio, whole blood” value [12, 15] of the same compound?
Answer: 7.5

Question: And the “stability in human brain homogenate” value [13]?
Answer: 99.5%

Question: And the “stability in human plasma” value [13]?
Answer: 100%

Question: And the “pKa (apparent)” value [14]?
Answer: 5.04 ± 0.01
